Measured values: the CheMixHub viscosity set
± gives the uncertainty stated by the source.

Experiment: xn = mol fraction of the nth substance listed

CC(C)C=O + CCCC=O
viscosity [mPa·s], 100 kPa
Conditions	293.5 K	293.51 K	317.08 K	318.11 K
x1 = 0.12	–	23.21 ± 0.7	17.25 ± 0.52	–
x1 = 0.2	2.307 ± 0.087	–	–	1.698 ± 0.073

CCOC(=O)CCCBr + CCCCCC
303.15 K, 101 kPa
Conditions	viscosity [mPa·s]
x1 = 0.2012	0.4062 ± 0.0048
x1 = 0.3949	0.5871 ± 0.0054
x1 = 0.4988	0.7248 ± 0.0059
x1 = 0.6008	0.8853 ± 0.0065
x1 = 0.7973	1.274 ± 0.0081

CC(C)(C)O + CO
303.2 K, 101.33 kPa
Conditions	viscosity [mPa·s]
x2 = 0.05	3.285 ± 0.026
x2 = 0.1	3.166 ± 0.025
x2 = 0.15	3 ± 0.024
x2 = 0.2	2.806 ± 0.023
x2 = 0.3	2.4 ± 0.019
x2 = 0.4	2.016 ± 0.016
x2 = 0.5	1.649 ± 0.014
x2 = 0.6	1.36 ± 0.011
x2 = 0.7	1.069 ± 0.009
x2 = 0.8	0.842 ± 0.007
x2 = 0.85	0.746 ± 0.007
x2 = 0.9	0.658 ± 0.006
x2 = 0.95	0.574 ± 0.005

CCNCC + CCCCCCCCO
viscosity [mPa·s], 100 kPa
Conditions	x1 = 0.0804	x1 = 0.16	x1 = 0.2402	x1 = 0.3517	x1 = 0.4405	x1 = 0.5609	x1 = 0.65	x1 = 0.7404	x1 = 0.8495	x1 = 0.9402
293.15 K	8.22 ± 0.66	7.36 ± 0.59	6.53 ± 0.52	5.45 ± 0.44	4.61 ± 0.37	3.56 ± 0.29	2.82 ± 0.23	2.13 ± 0.17	1.33 ± 0.11	0.7 ± 0.06
303.15 K	5.75 ± 0.46	5.14 ± 0.41	4.54 ± 0.36	3.76 ± 0.3	3.18 ± 0.26	2.44 ± 0.2	1.94 ± 0.16	1.46 ± 0.12	0.93 ± 0.08	0.53 ± 0.04
313.15 K	4.15 ± 0.33	3.7 ± 0.3	3.26 ± 0.26	2.69 ± 0.22	2.28 ± 0.18	1.75 ± 0.14	1.4 ± 0.11	1.06 ± 0.09	0.69 ± 0.06	0.42 ± 0.03
323.15 K	3.05 ± 0.25	2.71 ± 0.22	2.39 ± 0.19	1.97 ± 0.16	1.67 ± 0.13	1.3 ± 0.1	1.04 ± 0.08	0.8 ± 0.06	0.54 ± 0.04	0.34 ± 0.03

CCCCCCCCNCCCCCCCC + C1CCCCC1
303.15 K, 101 kPa
Conditions	viscosity [mPa·s]
x2 = 0.1052	3.382 ± 0.068
x2 = 0.2021	3.137 ± 0.063
x2 = 0.3028	2.95 ± 0.059
x2 = 0.4044	2.591 ± 0.052
x2 = 0.5039	2.306 ± 0.046
x2 = 0.6016	1.976 ± 0.04
x2 = 0.7009	1.653 ± 0.033
x2 = 0.8006	1.364 ± 0.027
x2 = 0.9216	1.055 ± 0.021

NCCN + OCCO
viscosity [mPa·s], 101 kPa
Conditions	x1 = 0.0872	x1 = 0.17	x1 = 0.2572	x1 = 0.3496	x1 = 0.3568	x1 = 0.4448	x1 = 0.547	x1 = 0.6556	x1 = 0.7623	x1 = 0.8792
293.15 K	27.84 ± 0.62	34.57 ± 0.79	40.29 ± 0.93	40.83 ± 0.96	–	34.13 ± 0.8	21.71 ± 0.5	11.54 ± 0.26	5.764 ± 0.13	2.87 ± 0.062
298.15 K	22.44 ± 0.5	27.12 ± 0.61	31.13 ± 0.71	31.21 ± 0.72	–	26.03 ± 0.6	16.95 ± 0.39	9.305 ± 0.21	4.829 ± 0.11	2.474 ± 0.053
303.15 K	18.11 ± 0.4	21.75 ± 0.48	24.48 ± 0.55	24.17 ± 0.55	22.85 ± 0.45	20.15 ± 0.46	–	7.547 ± 0.17	4.093 ± 0.089	2.165 ± 0.046
308.15 K	14.79 ± 0.32	17.62 ± 0.39	19.51 ± 0.44	19.04 ± 0.43	–	15.91 ± 0.36	10.76 ± 0.24	–	3.514 ± 0.076	1.914 ± 0.041
313.15 K	12.24 ± 0.27	14.39 ± 0.32	15.71 ± 0.35	15.26 ± 0.34	–	12.72 ± 0.28	8.758 ± 0.19	5.248 ± 0.12	3.031 ± 0.065	1.715 ± 0.036
318.15 K	10.22 ± 0.22	11.87 ± 0.26	12.84 ± 0.28	12.3 ± 0.27	–	10.35 ± 0.23	7.228 ± 0.16	4.445 ± 0.097	2.644 ± 0.057	1.537 ± 0.033
323.15 K	8.597 ± 0.19	9.828 ± 0.22	10.57 ± 0.24	10.09 ± 0.23	–	8.503 ± 0.19	6.053 ± 0.13	3.8 ± 0.08	2.317 ± 0.048	1.383 ± 0.029

CC(C)(C)O + C1COCCO1
298.15 K, 101 kPa
Conditions	viscosity [mPa·s]
x2 = 0.0878	2.941 ± 0.072
x2 = 0.1776	2.179 ± 0.05
x2 = 0.2717	1.773 ± 0.037
x2 = 0.3647	1.496 ± 0.029
x2 = 0.4695	1.304 ± 0.023
x2 = 0.571	1.197 ± 0.019
x2 = 0.6659	1.134 ± 0.016
x2 = 0.7778	1.114 ± 0.014
x2 = 0.791	1.111 ± 0.014
x2 = 0.8424	1.11 ± 0.013
x2 = 0.8786	1.118 ± 0.012

CCNCC + CCCCCC
viscosity [mPa·s], 101 kPa
Conditions	x2 = 0.0897	x2 = 0.1836	x2 = 0.2802	x2 = 0.3738	x2 = 0.474	x2 = 0.5744	x2 = 0.6849	x2 = 0.7818	x2 = 0.8954
298.15 K	0.284 ± 0.003	0.281 ± 0.003	0.28 ± 0.003	0.278 ± 0.003	0.278 ± 0.003	0.279 ± 0.003	0.281 ± 0.003	0.283 ± 0.003	0.287 ± 0.003
313.15 K	0.254 ± 0.003	0.251 ± 0.003	0.25 ± 0.003	0.249 ± 0.003	0.25 ± 0.01	0.25 ± 0.003	0.251 ± 0.003	0.254 ± 0.003	0.257 ± 0.003

COCCOCCOCCO + O=C1CCCN1
298.15 K, 101 kPa
Conditions	viscosity [mPa·s]
x1 = 0.0024	14.16 ± 0.3
x1 = 0.0071	13.98 ± 0.29
x1 = 0.0099	13.92 ± 0.29
x1 = 0.0137	13.86 ± 0.29
x1 = 0.026	13.66 ± 0.29
x1 = 0.0397	13.43 ± 0.28
x1 = 0.0605	13.11 ± 0.28
x1 = 0.085	12.74 ± 0.27
x1 = 0.1404	12.01 ± 0.26
x1 = 0.1689	11.65 ± 0.25
x1 = 0.2026	11.29 ± 0.24
x1 = 0.24	10.92 ± 0.24
x1 = 0.2913	10.46 ± 0.23
x1 = 0.3429	10.04 ± 0.22
x1 = 0.3916	9.679 ± 0.22
x1 = 0.4401	9.334 ± 0.21
x1 = 0.4897	9.091 ± 0.21
x1 = 0.5674	8.598 ± 0.2
x1 = 0.6133	8.347 ± 0.2
x1 = 0.6641	8.188 ± 0.19
x1 = 0.7172	7.889 ± 0.19
x1 = 0.7708	7.642 ± 0.18
x1 = 0.8177	7.419 ± 0.18
x1 = 0.8659	7.145 ± 0.18
x1 = 0.9053	6.89 ± 0.17
x1 = 0.9402	6.677 ± 0.17
x1 = 0.9788	6.466 ± 0.16
x2 = 0.009	6.323 ± 0.16

Nc1ccccc1 + COCCO
303.15 K, 101 kPa
Conditions	viscosity [mPa·s]
x1 = 0.0881	2.156 ± 0.04
x1 = 0.1786	2.351 ± 0.043
x1 = 0.2716	2.555 ± 0.047
x1 = 0.3671	2.757 ± 0.05
x1 = 0.4652	2.955 ± 0.054
x1 = 0.5661	3.129 ± 0.057
x1 = 0.67	3.284 ± 0.06
x1 = 0.7768	3.437 ± 0.062
x1 = 0.8867	3.591 ± 0.065
